{
  "source": "patent US7122360B1",
  "about": "“Polypeptides, polynucleotides and uses thereof” (University of Dundee, priority 1998, dated 2006)",
  "key": {"MAPKAP-K1 [1]": {"tested_on": "MAPKAP-K1", "assay": "NGF-induced activation of MAPKAP-K1 in PC12 cells", "conditions": "50 μM PD 98059, 10 μM SB 203580"}, "MAPKAP-K1 [2]": {"tested_on": "MAPKAP-K1", "assay": "Activation of MAPKAP-K1 in SK-N-MC cells", "assay_type": "cell-based", "conditions": "50 μM PD 98059, 10 μM SB 203580", "experimental": "(§1) FIG. 14. […] After cell lysis aliquots were assayed for either MSK1 (A), MAPKAP-K1 (B), MAPKAP-K2 (C) after their immunoprecipitation from the lysates or immunoblotted for phosphorylation of CREB and ATF1 (D).\n(§2) Cell Culture, stimulation and cell lysis."}, "MSK1 [3]": {"tested_on": "MSK1", "assay": "Activation of MSK1 by TNF in HeLa cells", "assay_type": "cell-based", "conditions": "50 μM PD 98059, 10 μM SB 203580, TNF 10 ng/ml", "source_text": "as §2"}, "MSK1 [4]": {"tested_on": "MSK1", "assay": "NGF-induced activation of MSK1 in PC12 cells", "conditions": "50 μM PD 98059, 10 μM SB 203580, NGF 30 ng/ml 15 min"}, "MSK1 [5]": {"tested_on": "MSK1", "assay": "Activation of transfected Flag-MSK1 in 293 cells", "assay_type": "cell-based, human", "conditions": "for UV-induced activation of transfected MSK1 / activation of transfected MSK1 by TPA: 50 μM PD 98059 or 10 μM SB 203580", "experimental": "FIG. 6. Effect of mutation of MSK1 on activation by TPA and UV in 293 cells. 293 cells were transiently transfected with DNA constructs expressing Flag epitope tagged wild type MSK1, N-terminal (NT) “kinase dead” MSK1 and C-terminal (CT) “kinase dead” MSK1. […] The cells were lysed and the MSK1 was immunoprecipitated from the lysates and assayed with Crosstide.\nTransfection of MSK1 into 293 cells. 293 cells were cultured on 10 cm diameter dishes and transfected with the pCMV5 vector encoding the Flag epitope tagged MSK1 constructs using a modified calcium phosphate method (Alessi et al., 1996b). 24 h post-transfection, the cells were deprived of serum for 16 h, stimulated with TPA or exposed to UV radiation, the cells were then lysed in 1 ml of ice cold Buffer A, centrifuged at 13,000×g for 5 min, and the Flag tagged MSK1 protein immunoprecipitated from aliquots of lysate (containing 25 μg protein) using 2 μg of FLAG antibody coupled to 5 (1 of Protein G-Sepharose.\nImmunoprecipitates were incubated, washed and assayed for MSK1 activity as described above."}, "MAPKAP-K1a/b [6]": {"tested_on": "MAPKAP-K1a/b", "assay": "Activation of MAPKAP-K1a/b by TNF in HeLa cells", "assay_type": "cell-based", "conditions": "50 μM PD 98059, 10 μM SB 203580", "source_text": "as §2"}, "MAPK": {"tested_on": "MAPK", "conditions": "PC12 cells expressing high levels of the NGF receptor (Alessi et al., 1995); cited from earlier work"}, "MAPKAP-K1a/b [7]": {"tested_on": "MAPKAP-K1a/b", "assay": "Activation of MAPKAP-K1a/b in 293 cells", "conditions": "50 μM PD 98059 or 10 μM SB 203580"}, "MAPKAP-K2 [8]": {"tested_on": "MAPKAP-K2", "assay": "Activation of MAPKAP-K2 by TNF in HeLa cells", "assay_type": "cell-based", "source_text": "as §2"}, "MAPKAP-K2 [9]": {"tested_on": "MAPKAP-K2", "assay": "Activation of MAPKAP-K2 in SK-N-MC cells", "assay_type": "cell-based", "conditions": "50 μM PD 98059, 10 μM SB 203580, 5 μM Ro 318220", "experimental": "as §1, §2"}, "MAPKAP-K1 [10]": {"tested_on": "MAPKAP-K1", "assay": "LPS-induced activation of MAPKAP-K1 in RAW 264 macrophages", "assay_type": "cell-based, mouse", "conditions": "LPS 100 ng/ml 1 h, 10 μM UO 126, 5 TM Ro 318220"}, "MSK1 [11]": {"target": "MSK1 (Homo sapiens, UniProt O75582)", "sequence (O75582 whole entry, canonical isoform)": "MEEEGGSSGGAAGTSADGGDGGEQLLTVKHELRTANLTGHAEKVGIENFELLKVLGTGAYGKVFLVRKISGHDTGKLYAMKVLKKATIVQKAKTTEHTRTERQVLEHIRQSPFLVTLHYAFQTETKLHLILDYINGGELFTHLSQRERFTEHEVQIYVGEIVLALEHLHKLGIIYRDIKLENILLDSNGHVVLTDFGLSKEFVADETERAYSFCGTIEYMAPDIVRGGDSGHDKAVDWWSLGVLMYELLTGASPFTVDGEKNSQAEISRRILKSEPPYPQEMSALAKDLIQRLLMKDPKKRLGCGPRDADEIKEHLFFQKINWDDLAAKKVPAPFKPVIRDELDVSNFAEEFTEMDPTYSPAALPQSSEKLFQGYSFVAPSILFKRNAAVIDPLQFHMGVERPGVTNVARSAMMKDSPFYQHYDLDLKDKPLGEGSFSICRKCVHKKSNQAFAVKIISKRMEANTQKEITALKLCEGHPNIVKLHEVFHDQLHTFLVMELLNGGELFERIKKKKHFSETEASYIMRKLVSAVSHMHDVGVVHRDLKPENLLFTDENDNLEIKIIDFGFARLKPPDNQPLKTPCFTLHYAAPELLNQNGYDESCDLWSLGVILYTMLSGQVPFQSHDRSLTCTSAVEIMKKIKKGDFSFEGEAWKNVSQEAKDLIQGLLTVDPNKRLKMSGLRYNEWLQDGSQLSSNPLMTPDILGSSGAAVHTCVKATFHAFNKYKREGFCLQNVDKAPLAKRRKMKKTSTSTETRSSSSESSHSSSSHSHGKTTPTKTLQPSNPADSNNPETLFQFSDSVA", "assay": "Effect of Ro 318220 on GST-MSK1 activity in vitro", "assay_type": "biochemical", "conditions": "compared with PKC isoforms and MAPKAP-K1a/b"}, "MAPKAP-K1a/b [12]": {"target": "T1, MAPKAP-K1a/b (Oryctolagus cuniculus, UniProt A0A5F9C4L9)", "T1 construct": "GST", "T1 sequence (A0A5F9C4L9 1-740)": "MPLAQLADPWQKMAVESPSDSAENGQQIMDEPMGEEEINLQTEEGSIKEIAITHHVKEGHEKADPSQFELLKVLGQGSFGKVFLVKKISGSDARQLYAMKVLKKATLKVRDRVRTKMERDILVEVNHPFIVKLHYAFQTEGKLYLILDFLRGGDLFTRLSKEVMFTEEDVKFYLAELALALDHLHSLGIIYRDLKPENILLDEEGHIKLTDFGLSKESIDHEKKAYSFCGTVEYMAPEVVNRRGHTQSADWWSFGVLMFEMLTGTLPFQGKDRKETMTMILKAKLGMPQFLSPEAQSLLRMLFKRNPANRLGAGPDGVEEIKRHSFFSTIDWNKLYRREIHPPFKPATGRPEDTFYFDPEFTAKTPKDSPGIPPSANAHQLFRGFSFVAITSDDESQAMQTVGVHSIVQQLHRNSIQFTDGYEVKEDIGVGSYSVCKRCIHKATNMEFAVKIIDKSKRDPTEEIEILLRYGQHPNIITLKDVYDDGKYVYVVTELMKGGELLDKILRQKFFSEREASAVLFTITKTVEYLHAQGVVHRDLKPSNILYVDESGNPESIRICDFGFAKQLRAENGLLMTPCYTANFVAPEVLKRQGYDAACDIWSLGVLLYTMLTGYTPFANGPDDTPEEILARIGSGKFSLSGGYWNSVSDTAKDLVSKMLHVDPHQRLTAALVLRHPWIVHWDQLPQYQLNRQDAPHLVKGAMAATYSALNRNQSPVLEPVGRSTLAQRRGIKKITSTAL", "assay": "Effect of Ro 318220 on MAPKAP-K1a/b in vitro", "assay_type": "biochemical", "conditions": "Alessi 1997, FIG. 9A", "experimental": "(§3) FIG. 9. Effect of Ro 318220 on the activity of MSK1. (A) Effect of Ro 318220 on GST-MSK1 (closed circles), mixed PKC isoforms (open circles) GST-MAPKAP-K1b and MAPKAP-K2 (open triangles) in vitro. […] The error for each point is ±10%. […] The cells were lysed MAPKAP-K2 was immunoprecipitated and assayed. […] (C) as above except that 293 cells were incubated for 2 h in 32phosphate (0.1 mCi/ml) before treatment with inhibitors. Cells were then exposed to either UV radiation (200 J/m2) or left untreated (−), incubated for a further 20 min in the continued presence of inhibitors. Following cell lysis, HSP27 was immunoprecipitated from cell extracts (Cuenda et al., 1995) run on a 15% polyacrylamide gel and autoradiographed."}, "MAPKAP-K2 [13]": {"target": "T2, MAPKAP-K2 (Homo sapiens, UniProt P49137)", "T2 construct": "GST; made in house; host or cells: bacteria", "T2 sequence (P49137 46-400 limits assumed)": "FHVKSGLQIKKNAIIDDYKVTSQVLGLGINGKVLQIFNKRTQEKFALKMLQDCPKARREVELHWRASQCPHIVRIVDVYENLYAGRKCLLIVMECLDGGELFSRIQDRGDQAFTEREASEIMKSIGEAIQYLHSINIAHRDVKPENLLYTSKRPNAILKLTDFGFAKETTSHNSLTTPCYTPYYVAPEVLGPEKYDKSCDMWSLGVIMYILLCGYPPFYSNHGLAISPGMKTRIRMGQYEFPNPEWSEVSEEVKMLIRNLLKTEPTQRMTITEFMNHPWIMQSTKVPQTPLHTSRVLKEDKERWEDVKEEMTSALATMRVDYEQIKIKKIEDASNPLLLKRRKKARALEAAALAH", "assay": "Effect of Ro 318220 on MAPKAP-K2 in vitro", "assay_type": "biochemical", "conditions": "even at 10 μM", "experimental": "as §3"}, "MSK2": {"tested_on": "MSK2", "assay": "LPS-induced activation of MSK2 in RAW 264 macrophages", "assay_type": "cell-based, mouse", "conditions": "LPS 100 ng/ml 1 h, 10 μM UO 126, 10 μM SB 203580, 5 TM Ro 318220"}, "HSP27": {"tested_on": "HSP27", "assay": "UV induced phosphorylation of HSP27 in 293 cells", "assay_type": "cell-based, human", "conditions": "UV 200 J/m^2", "experimental": "as §3"}, "PKC isoforms": {"tested_on": "PKC isoforms", "assay": "Effect of Ro 318220 on mixed PKC isoforms in vitro", "assay_type": "biochemical", "conditions": "Davis et al., 1989, Alessi 1997, FIG. 9A", "experimental": "as §3"}, "[14]": {"target": "cyclic AMP dependent protein kinase (Homo sapiens, UniProt P17612)", "conditions": "10 μM Ro 318220 (Davis et al., 1989); cited from earlier work"}, "MAPKAP-K2 [15]": {"tested_on": "MAPKAP-K2", "assay": "LPS-induced activation of MAPKAP-K2 in RAW 264 macrophages", "assay_type": "cell-based, mouse", "conditions": "LPS 100 ng/ml 1 h, 10 μM SB 203580, 5 TM Ro 318220"}, "MAPKAP-K2 [16]": {"tested_on": "MAPKAP-K2", "assay": "Activation of MAPKAP-K2 in 293 cells", "assay_type": "cell-based, human", "conditions": "50 μM PD 98059 or 10 μM SB 203580", "experimental": "as §3, §2"}},
  "note": "Entries after “also recorded” stand apart in the source; their conditions may differ.",
  "data": [
    {"molecule": "COc1cccc(-c2cc(=O)c3ccccc3o2)c1N", "note": "[PD 98059]", "values": [
      {"measurement": "NGF-induced activation of MAPKAP-K1", "setting": "MAPKAP-K1 [1]", "result": "only partially inhibited"},
      {"measurement": "activation of MAPKAP-K1 by FGF", "setting": "MAPKAP-K1 [2]", "result": "abolished"},
      {"measurement": "activation of MSK1 by TNF after 5 min", "setting": "MSK1 [3]", "result": "unaffected"},
      {"measurement": "activation of MSK1 by TNF after 15 min", "setting": "MSK1 [3]", "result": "partially blocked"},
      {"measurement": "NGF-induced activation of MSK1", "setting": "MSK1 [4]", "result": "not significantly affected"},
      {"measurement": "UV-induced activation of transfected MSK1", "setting": "MSK1 [5]", "result": "unaffected"},
      {"measurement": "activation of transfected MSK1 by TPA", "setting": "MSK1 [5]", "result": "prevented"},
      {"measurement": "activation of transfected wild type MSK1 by EGF, basic FGF and serum", "setting": "MSK1 [5]; data not shown", "result": "prevented"},
      {"measurement": "activation of MAPKAP-K1a/b after 15 min of TNF stimulation", "setting": "MAPKAP-K1a/b [6]", "result": "suppressed"},
      {"measurement": "NGF-induced activation of MAPK", "setting": "MAPK", "result": "only partially suppresses"},
      {"measurement": "activation of MAPKAP-K1a/b by EGF and TPA", "setting": "MAPKAP-K1a/b [7]", "result": "largely suppressed"}
    ]},
    {"molecule": "Cn1cc(C2=C(c3cn(CCCSC(=N)N)c4ccccc34)C(=O)NC2=O)c2ccccc21", "note": "[Ro 318220]", "values": [
      {"measurement": "activation of MAPKAP-K2 by TNF", "setting": "MAPKAP-K2 [8]; 5 μM Ro 318220, data not shown", "result": "unaffected"},
      {"measurement": "activation of MAPKAP-K2 by sodium arsenite and FGF", "setting": "MAPKAP-K2 [9]", "result": "does not affect"},
      {"measurement": "LPS-induced activation of MAPKAP-K1", "setting": "MAPKAP-K1 [10]", "result": "does not affect"},
      {"measurement": "inhibition of MSK1 activity in vitro", "setting": "MSK1 [11]", "result": "equally potent inhibitor; also recorded: reversible inhibitor"},
      {"measurement": "IC50", "setting": "MAPKAP-K1a/b [12]", "result": "10 to 30", "unit": "nM"},
      {"measurement": "inhibition of MAPKAP-K2 in vitro", "setting": "MAPKAP-K2 [13]", "result": "does not significantly inhibit"},
      {"measurement": "LPS-induced activation of MSK2", "setting": "MSK2", "result": "does not affect"},
      {"measurement": "UV induced phosphorylation of HSP27", "setting": "HSP27", "result": "did not significantly affect"},
      {"measurement": "IC50", "setting": "PKC isoforms", "result": "10 to 30", "unit": "nM"},
      {"measurement": "inhibition of cyclic AMP dependent protein kinase", "setting": "[14]", "result": "not significantly inhibited"},
      {"measurement": "LPS-induced activation of MAPKAP-K2", "setting": "MAPKAP-K2 [15]", "result": "does not affect"}
    ]},
    {"molecule": "C[S+]([O-])c1ccc(-c2nc(-c3ccncc3)c(-c3ccc(F)cc3)[nH]2)cc1", "note": "(centres unmarked) [SB 203580]", "values": [
      {"measurement": "activation of MAPKAP-K2 after 5 min of TNF stimulation", "setting": "MAPKAP-K2 [8]; 50 μM PD 98059, 10 μM SB 203580", "result": "inhibited"},
      {"measurement": "NGF-induced activation of MAPKAP-K1", "setting": "MAPKAP-K1 [1]", "result": "unaffected"},
      {"measurement": "activation of MAPKAP-K2 by sodium arsenite and FGF", "setting": "MAPKAP-K2 [9]", "result": "completely prevented"},
      {"measurement": "activation of MAPKAP-K2 by stressful stimuli", "setting": "MAPKAP-K2 [16]", "result": "prevented"},
      {"measurement": "activation of MSK1 by TNF after 5 min", "setting": "MSK1 [3]", "result": "completely inhibited"},
      {"measurement": "activation of MSK1 by TNF after 15 min", "setting": "MSK1 [3]", "result": "partially blocked"},
      {"measurement": "LPS-induced activation of MSK2", "setting": "MSK2", "result": "only inhibited partially"},
      {"measurement": "NGF-induced activation of MSK1", "setting": "MSK1 [4]", "result": "not significantly affected"},
      {"measurement": "UV induced phosphorylation of HSP27", "setting": "HSP27", "result": "blocked"},
      {"measurement": "UV-induced activation of transfected MSK1", "setting": "MSK1 [5]", "result": "prevented"},
      {"measurement": "activation of transfected MSK1 by TPA", "setting": "MSK1 [5]", "result": "but not by SB 203580"},
      {"measurement": "activation of MAPKAP-K1a/b by EGF and TPA", "setting": "MAPKAP-K1a/b [7]", "result": "but not by SB 203580"},
      {"measurement": "LPS-induced activation of MAPKAP-K2", "setting": "MAPKAP-K2 [15]", "result": "completely block"}
    ]}
  ]
}
